From article PMC5421464, “Characterization of the single-subunit oligosaccharyltransferase STT3A from Trypanosoma brucei using synthetic peptides and lipid-linked oligosaccharide analogs” (Glycobiology, 2017)

Experiments:
[1] = target: T1, TbSTT3A (Trypanosoma brucei, UniProt Q57W34); test: In vitro glycosylation assay, turnover rate of acceptor peptides (Tricine SDS-PAGE fluorescence); format: biochemical; conditions: 50 µM donor, overnight incubation, vast excess substrate
T1 sequence (Q57W34 1-801): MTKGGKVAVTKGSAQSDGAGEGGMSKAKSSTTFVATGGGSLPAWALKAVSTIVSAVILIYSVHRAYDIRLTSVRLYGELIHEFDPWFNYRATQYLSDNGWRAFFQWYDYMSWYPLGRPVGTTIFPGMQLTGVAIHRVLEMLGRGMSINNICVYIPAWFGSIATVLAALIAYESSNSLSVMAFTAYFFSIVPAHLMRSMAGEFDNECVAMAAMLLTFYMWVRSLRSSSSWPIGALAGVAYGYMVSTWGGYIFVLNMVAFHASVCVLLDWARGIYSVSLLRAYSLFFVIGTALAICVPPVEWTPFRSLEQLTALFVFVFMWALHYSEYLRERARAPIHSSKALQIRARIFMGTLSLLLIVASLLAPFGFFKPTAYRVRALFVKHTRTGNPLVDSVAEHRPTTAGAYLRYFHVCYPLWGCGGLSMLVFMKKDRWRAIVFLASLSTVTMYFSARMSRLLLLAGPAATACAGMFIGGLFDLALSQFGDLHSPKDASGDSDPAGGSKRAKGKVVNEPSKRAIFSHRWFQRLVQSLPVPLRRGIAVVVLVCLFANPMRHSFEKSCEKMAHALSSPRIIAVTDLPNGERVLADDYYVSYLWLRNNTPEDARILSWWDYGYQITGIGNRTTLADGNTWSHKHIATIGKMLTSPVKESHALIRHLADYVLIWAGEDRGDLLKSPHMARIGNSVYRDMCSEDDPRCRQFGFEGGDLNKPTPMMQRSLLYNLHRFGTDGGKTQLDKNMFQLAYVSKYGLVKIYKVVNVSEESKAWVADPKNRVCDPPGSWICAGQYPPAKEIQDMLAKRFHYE
Protocol: Fig. 2. Optimization of the acceptor peptide sequence. (A) Synthetic acceptor peptides are shown in single letter code. The acceptor asparagine (zero position of the sequon) is indicated in red. Glycosylation experiments were performed and the fluorescently labeled substrate (G0) and product (G1) were quantified following Tricine SDS-PAGE analysis. (B) Turnover rates after fitting the time points by linear regression using PRISM. Error bars indicate standard error of the fitting. (C) Kinetic analysis of substrate peptides: glycosylation experiments were performed with 20 nM purified TbSTT3A, 50 µM farnesyl-PP-chitobiose, 10 mM MnCl2, 150 mM NaCl, 20 mM Hepes pH 7.5, 0.035% DDM, 0.007% CHS and different concentrations of peptides varying from 2 to 60 µM. Data points reflect the mean of three separate measurements. Error bars indicate standard deviations. Data were fitted by nonlinear regression according to the Michaelis–Menten formula using PRISM. This figure is available in black and white in print and in color at Glycobiology online.
Reaction mixtures contained 20 nM purified TbSTT3A protein, 50µM farnesyl-PP-GlcNAc or farnesyl-PP-chitobiose, 10 mM MnCl2, 150 mM NaCl, 20 mM Hepes pH 7.5, 0.035% DDM, 0.007% CHS and 20 µM of the peptide. Reactions were incubated at 30°C. Samples were taken at different time points and reactions were stopped by the addition of 4X SDS Laemmli buffer. Samples were diluted 200-fold prior to analysis by Tricine SDS-PAGE consisting of a 16% resolving gel with 6 M urea, a 10% spacer gel and a 4% stacking gel ([Schägger 2006]). Fluorescent bands for peptide and glycopeptide were visualized by using a Typhoon Trio Plus imager (GE Healthcare) with excitation set at 488 nm and using a 526 nm SP emission filter. The amount of formed glycopeptide was determined from band intensities of fluorescence gel scans (ImageJ) ([Gerber et al. 2013]). Turnover rate determination was performed by fitting of the data to linear regression using PRISM software.
Supplementary Figure 2: Glycosylation Assays with farnesyl-PP-GlcNAc. In vitro glycosylation experiments were performed with 20nM purified TbStt3A purified protein, 50µM Farnesyl-PP-GlcNAc or Farnesyl-PP-GlcNac2, 10 mM MnCl2, 150 mM NaCl, 20 mM Hepes pH 7.5, 0.035% DDM, 0.007% CHS and 10 µM of the peptide P1.

[2] = target: PglB (Campylobacter lari, UniProt B9KDD4); test: In vitro substrate test with PglB; format: biochemical; conditions: data not shown
[3] = tested on: bacterial flippase PglK; set-up: method as in Perez et al. 2015; conditions: in detergent; ref Perez et al. 2015; cited from earlier work
[4] = tested on: octa-subunit OST complex from pig liver; set-up: method as in Bause et al. 1995; conditions: ref Bause et al. 1995; cited from earlier work
[5] = tested on: octa-subunit OST complex from yeast; set-up: method as in Tai and Imperiali 2001; conditions: ref Tai and Imperiali 2001; cited from earlier work
[6] = substrate: CC(=O)NC1C(OC2C(CO)OC(OP(=O)(O)OP(=O)(O)OCCC(C)CCC=C(C)CCC=C(C)CCC=C(C)C)C(NC(C)=O)C2O)OC(CO)C(O)C1O; test: Michaelis-Menten kinetics of the LLO analogs; format: biochemical, Trypanosoma brucei; conditions: other: 20 nM TbSTT3A, 10 µM acceptor peptide, varying LLO analog concentration; pH 7.5
Protocol: (§1) Fig. 3. (A) Structure of the LLO analogs synthesized (1a) (S)-Citronellyl-PP-Chitobiose, C10; (1b) farnesyl-PP-chitobiose, C15; (1c) (S)-NerylCitronellyl-PP-chitobiose, C20; (1d) (S)-farnesylCitronellyl-PP-chitobiose, C25. (B) Kinetic analysis of synthetic LLO analogs. Glycosylation experiments were performed with 20 nM purified TbSTT3A, 10 µM […], 10 mM MnCl2, 150 mM NaCl, 20 mM Hepes pH 7.5, 0.035% DDM, 0.007% CHS and different concentrations of synthetic LLO analogs. Data points reflect the mean of 3 separate measurements. Error bars indicate standard deviations. Data were fitted by nonlinear regression according to the Michaelis–Menten formula using PRISM software. This figure is available in black and white in print and in color at Glycobiology online.
(§2) For Michaelis–Menten kinetics of the LLO analogs, reaction mixtures containing 20 nM TbSTT3A protein, 10 µM peptide P11, 10 mM MnCl2, 150 mM NaCl, 20 mM Hepes pH 7.5, 0.035% DDM and 0.007% CHS were incubated with different concentrations of LLO analogs (10–900 µM, for 1a; 2–60 µM, for 1b; 1–50 µM, for 1c and 1–20 µM, for 1d). Samples were taken at different time points and turnover rates of the reactions were determined as before. Data were fitted by nonlinear regression according to the Michaelis–Menten formula using PRISM software.

[7] = substrate: CC(=O)N[C@H]1[C@@H](OP(=O)(O)OP(=O)(O)OC/C=C(\C)CC/C=C(\C)CCC=C(C)C)O[C@H](CO)[C@@H](O[C@@H]2O[C@H](CO)[C@@H](O)[C@H](O)[C@H]2NC(C)=O)[C@@H]1O; test: Michaelis-Menten kinetics of the LLO analogs; format: biochemical, Trypanosoma brucei; conditions: other: 20 nM TbSTT3A, 10 µM acceptor peptide, varying LLO analog concentration; pH 7.5
Protocol: as §1, §2

[8] = substrate: CC(=O)N[C@H]1[C@@H](OP(=O)(O)OP(=O)(O)OCC[C@@H](C)CC/C=C(/C)CC/C=C(\C)CC/C=C(\C)CCC=C(C)C)O[C@H](CO)[C@@H](O[C@@H]2O[C@H](CO)[C@@H](O)[C@H](O)[C@H]2NC(C)=O)[C@@H]1O; test: Michaelis-Menten kinetics of the LLO analogs; format: biochemical, Trypanosoma brucei; conditions: other: 20 nM TbSTT3A, 10 µM acceptor peptide, varying LLO analog concentration; pH 7.5
Protocol: as §1, §2

[9] = substrate: [H][C@@]1(O[C@H]2[C@H](O)[C@@H](NC(C)=O)[C@@H](OP(=O)(O)OP(=O)(O)OCC[C@@H](C)CCC=C(C)C)O[C@@H]2CO)O[C@H](CO)[C@@H](O)[C@H](O)[C@H]1NC(C)=O; test: Michaelis-Menten kinetics of the LLO analogs; format: biochemical, Trypanosoma brucei; conditions: other: 20 nM TbSTT3A, 10 µM acceptor peptide, varying LLO analog concentration; pH 7.5
Protocol: as §1, §2

Chain of PglB (B9KDD4 whole entry): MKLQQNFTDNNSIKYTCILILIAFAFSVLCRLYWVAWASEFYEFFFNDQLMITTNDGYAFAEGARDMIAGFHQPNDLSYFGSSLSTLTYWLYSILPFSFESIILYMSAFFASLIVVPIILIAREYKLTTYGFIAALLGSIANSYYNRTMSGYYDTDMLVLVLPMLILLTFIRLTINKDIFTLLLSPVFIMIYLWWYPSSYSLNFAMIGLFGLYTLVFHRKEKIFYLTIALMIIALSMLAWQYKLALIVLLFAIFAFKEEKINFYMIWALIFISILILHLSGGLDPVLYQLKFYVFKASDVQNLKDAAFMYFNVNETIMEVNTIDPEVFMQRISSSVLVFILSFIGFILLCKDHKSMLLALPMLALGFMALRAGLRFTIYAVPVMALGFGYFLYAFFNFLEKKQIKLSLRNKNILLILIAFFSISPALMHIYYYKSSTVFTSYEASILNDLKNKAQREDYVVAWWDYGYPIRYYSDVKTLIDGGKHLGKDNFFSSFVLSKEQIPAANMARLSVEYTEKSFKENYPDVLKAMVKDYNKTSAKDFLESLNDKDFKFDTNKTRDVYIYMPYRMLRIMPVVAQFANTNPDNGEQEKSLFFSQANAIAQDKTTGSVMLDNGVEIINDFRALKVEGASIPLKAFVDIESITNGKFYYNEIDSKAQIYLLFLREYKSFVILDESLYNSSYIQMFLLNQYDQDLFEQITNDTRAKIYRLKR

CC(=O)NC1C(OP(=O)(O)OP(=O)(O)OCC=C(C)CCC=C(C)CCC=C(C)C)OC(CO)C(O)C1O (stereo not shown) [farnesyl-PP-GlcNAc, reference compound]
Donor substrate for TbSTT3A (glycopeptide product formation) [1]: no glycopeptide product was observed | Donor substrate for TbSTT3A (glycopeptide product formation) ([1]; listed as farnesyl-PP-GlcNac): not recognized as a substrate | In vitro substrate of PglB [2]: accepted as an in vitro substrate | Effect on ATPase activity of PglK [3]: stimulated ATPase activity

Dol-PP-GlcNAc
Recognition as donor substrate in vitro [4]: poor donor | Recognition as donor substrate in vitro [5]: poor donor

B1: TbSTT3A (Trypanosoma brucei brucei TREU927) (protein)
chain: MTKGGKVAVTKGSAQSDGAGEGGMSKAKSSTTFVATGGGSLPAWALKAVSTIVSAVILIYSVHRAYDIRLTSVRLYGELIHEFDPWFNYRATQYLSDNGWRAFFQWYDYMSWYPLGRPVGTTIFPGMQLTGVAIHRVLEMLGRGMSINNICVYIPAWFGSIATVLAALIAYESSNSLSVMAFTAYFFSIVPAHLMRSMAGEFDNECVAMAAMLLTFYMWVRSLRSSSSWPIGALAGVAYGYMVSTWGGYIFVLNMVAFHASVCVLLDWARGIYSVSLLRAYSLFFVIGTALAICVPPVEWTPFRSLEQLTALFVFVFMWALHYSEYLRERARAPIHSSKALQIRARIFMGTLSLLLIVASLLAPFGFFKPTAYRVRALFVKHTRTGNPLVDSVAEHRPTTAGAYLRYFHVCYPLWGCGGLSMLVFMKKDRWRAIVFLASLSTVTMYFSARMSRLLLLAGPAATACAGMFIGGLFDLALSQFGDLHSPKDASGDSDPAGGSKRAKGKVVNEPSKRAIFSHRWFQRLVQSLPVPLRRGIAVVVLVCLFANPMRHSFEKSCEKMAHALSSPRIIAVTDLPNGERVLADDYYVSYLWLRNNTPEDARILSWWDYGYQITGIGNRTTLADGNTWSHKHIATIGKMLTSPVKESHALIRHLADYVLIWAGEDRGDLLKSPHMARIGNSVYRDMCSEDDPRCRQFGFEGGDLNKPTPMMQRSLLYNLHRFGTDGGKTQLDKNMFQLAYVSKYGLVKIYKVVNVSEESKAWVADPKNRVCDPPGSWICAGQYPPAKEIQDMLAKRFHYE
Km [6]: 5.3 ± 0.9 µM | Km [7]: 5.6 ± 0.8 µM | Km [8]: 2.5 ± 0.3 µM | Km [9]: 95 ± 18 µM
